In paper PMC12566511, “The Evaluation of (1R,4R,7R,10R)-α,α′,α″,α‴-Tetramethyl-1,4,7,10-tetraazacyclododecane-1,4,7,10-tetraacetic Acid (DOTMA) as a Chelator for Zirconium-89” (Molecules, 2025):
“Also recorded” adds a separate entry of the source.

Key:
[1] = Biodistribution studies in non-tumor-bearing, normal mice; format: in vivo, female NIH Swiss mice
Description: Female NIH Swiss mice (6–8 weeks old) were purchased from Inotiv, Lafayette, IN, USA. All animals were acclimated to a 12 h light/dark cycle and received food and water ad libitum for 5 days before any manipulations were performed. All animals were checked by veterinary staff daily to ensure well-being and proper environment and to monitor for signs of distress. Clinical signs of distress in laboratory rodents include decreased activity, pilo-erection, un-groomed appearance, excessive licking and scratching, self-mutilation, abnormal stance, hunched appearance, rapid or shallow respiration, grunting, dilated pupils, aggressiveness towards handler, high-pitched vocalizations, change in feeding activity, and attempts to separate from group. In the event of clinical distress, animals were euthanized after consulting the on-call veterinarian. To minimize suffering during the tail vain injection, animals were kept under deep isoflurane anesthesia. At the end point of the study, animals were anesthetized with isoflurane and were euthanized by cervical dislocation, which is consistent with the recommendations of the American Veterinary Medical Association Guidelines on Euthanasia.
Biodistribution studies were conducted using a modified literature procedure. Briefly, female NIH Swiss mice (6–8 weeks old, n = 6/cohort; 30 animals total) were injected with [^89Zr]Zr-DOTMA (0.55 MBq (15 μCi)/mouse) via the tail vein and sacrificed at 2, 4, 24, 48, and 72 h p.i. Organs and tissues of interest were excised, weighed, and counted on a gamma counter. The percent injected dose per gram (%ID/g) was calculated by comparison to a weighed, counted standard for each group.

[2] = In vitro EDTA challenge study; format: physicochemical; details: for % Intact of [^89Zr]Zr-Complex (n = 3): 37 °C, radio-ITLC
Description: The solutions (n = 3) were incubated at 37 °C for 7 days in a thermomixer. Samples were analyzed at 0, 1, 3, 5, and 7 days post administration to EDTA using radio-TLC, Varian ITLC-SA strips, 50 mM EDTA (pH 5) as the mobile phase, and gamma counting. All studies were performed in triplicate.

[3] = Partition coefficient (LogP), water/octanol partition method; format: physicochemical; details: octanol/water (pH 5.5), room temperature, n = 5
Description: The partition coefficient (LogP) was determined by adding 5 μL of [^89Zr]Zr-DOTMA (~5 μCi; 0.19 MBq) to a mixture of 500 μL of octanol and 500 μL of water (pH 5.5). The resulting solutions (n = 5) were vigorously vortexed for 5 min at room temperature, then centrifuged for 5 min to ensure complete separation of layers. From each of the five sets, a 50 μL aliquot was removed from each phase into new tubes and counted separately in a gamma counter. Each organic phase was washed with water to remove any radioactivity remaining in the organic phase before gamma counting. The partition coefficient was calculated as a ratio of counts in the octanol fraction to counts in the water fraction. The LogP values were reported as an average of five measurements.

With CC(C(=O)[O-])N1CCN(C(C)C(=O)[O-])CCN(C(C)C(=O)[O-])CCN(C(C)C(=O)[O-])CC1.[89Zr+4] (centres unmarked) [[^89Zr]Zr-DOTMA] the “Biodistribution (%ID/g) Spleen” value ([1]; 48 h p.i., tail vein, n = 6) was 0.024 ± 0.005 %ID/g, the “Biodistribution (%ID/g) Stomach” value ([1]; 48 h p.i., tail vein, n = 6) was 0.001 ± 0.000 %ID/g and the “fold less radioactivity associated with liver tissue compared to [^89Zr]Zr-DFO” value ([1]; 72 h p.i.) was 9 fold. For the same compound, the “fold less radioactivity in the bone tissue than [^89Zr]Zr-DFO” value ([1]; 72 h p.i.) was 3 fold, the “fold less radioactivity retained in the kidney than [^89Zr]Zr-DFO” value ([1]; 72 h p.i.) was 69 fold and the “Biodistribution (%ID/g) Blood” value ([1]; 72 h p.i., tail vein, n = 6) was 0.003 ± 0.001 %ID/g. The “Biodistribution (%ID/g) Bone” value ([1]; 72 h p.i., tail vein, n = 6) was 0.023 ± 0.003 %ID/g, the “Biodistribution (%ID/g) Fat” value ([1]; 72 h p.i., tail vein, n = 6) was 0.001 ± 0.001 %ID/g and the “Biodistribution (%ID/g) Heart” value ([1]; 72 h p.i., tail vein, n = 6) was 0.004 ± 0.001 %ID/g. The “Biodistribution (%ID/g) Kidney” value ([1]; 72 h p.i., tail vein, n = 6) was 0.010 ± 0.002 %ID/g, the “Biodistribution (%ID/g) Large intestine” value ([1]; 72 h p.i., tail vein, n = 6) was 0.003 ± 0.001 %ID/g and the “Biodistribution (%ID/g) Liver” value ([1]; 72 h p.i., tail vein, n = 6) was 0.007 ± 0.001 %ID/g. The “Biodistribution (%ID/g) Lung” value ([1]; 72 h p.i., tail vein, n = 6) was 0.013 ± 0.003 %ID/g, the “Biodistribution (%ID/g) Muscle” value ([1]; 72 h p.i., tail vein, n = 6) was 0.001 ± 0.001 %ID/g and the “Biodistribution (%ID/g) Pancreas” value ([1]; 72 h p.i., tail vein, n = 6) was 0.001 ± 0.001 %ID/g. For the same compound, the “Biodistribution (%ID/g) Small intestine” value ([1]; 72 h p.i., tail vein, n = 6) was 0.001 ± 0.000 %ID/g, the “Biodistribution (%ID/g) Spleen” value ([1]; 72 h p.i., tail vein, n = 6) was 0.026 ± 0.002 %ID/g and the “Biodistribution (%ID/g) Stomach” value ([1]; 72 h p.i., tail vein, n = 6) was 0.001 ± 0.000 %ID/g. For the same compound, the “stability to excess EDTA challenge (in words)” value ([2]; 1000-fold excess EDTA, pH 5 or pH 7, seven-day time course) was “inert; also recorded: stable”, the “% Intact of [^89Zr]Zr-Complex (n = 3)” value ([2]; EDTA 100-fold, pH 5.0, 0 h) was no less than 99.99% and the “% Intact of [^89Zr]Zr-Complex (n = 3)” value ([2]; EDTA 100-fold, pH 5.0, 1 d) was no less than 99.99%. The “% Intact of [^89Zr]Zr-Complex (n = 3)” value ([2]; EDTA 100-fold, pH 5.0, 3 d) was no less than 99.99%, the “% Intact of [^89Zr]Zr-Complex (n = 3)” value ([2]; EDTA 100-fold, pH 5.0, 5 d) was no less than 99.99% and the “% Intact of [^89Zr]Zr-Complex (n = 3)” value ([2]; EDTA 100-fold, pH 5.0, 7 d) was no less than 99.99%. The “% Intact of [^89Zr]Zr-Complex (n = 3)” value ([2]; EDTA 100-fold, pH 7.0, 0 h) was no less than 99.99%, the “% Intact of [^89Zr]Zr-Complex (n = 3)” value ([2]; EDTA 100-fold, pH 7.0, 1 d) was no less than 99.99% and the “% Intact of [^89Zr]Zr-Complex (n = 3)” value ([2]; EDTA 100-fold, pH 7.0, 3 d) was no less than 99.99%. For the same compound, the “% Intact of [^89Zr]Zr-Complex (n = 3)” value ([2]; EDTA 100-fold, pH 7.0, 5 d) was no less than 99.99%, the “% Intact of [^89Zr]Zr-Complex (n = 3)” value ([2]; EDTA 100-fold, pH 7.0, 7 d) was no less than 99.99% and the “% Intact of [^89Zr]Zr-Complex (n = 3)” value ([2]; EDTA 500-fold, pH 5.0, 0 h) was no less than 99.99%. The “% Intact of [^89Zr]Zr-Complex (n = 3)” value ([2]; EDTA 500-fold, pH 5.0, 1 d) was no less than 99.99%, the “% Intact of [^89Zr]Zr-Complex (n = 3)” value ([2]; EDTA 500-fold, pH 5.0, 3 d) was no less than 99.99% and the “% Intact of [^89Zr]Zr-Complex (n = 3)” value ([2]; EDTA 500-fold, pH 5.0, 5 d) was no less than 99.99%. The “% Intact of [^89Zr]Zr-Complex (n = 3)” value ([2]; EDTA 500-fold, pH 5.0, 7 d) was no less than 99.99%, the “% Intact of [^89Zr]Zr-Complex (n = 3)” value ([2]; EDTA 500-fold, pH 7.0, 0 h) was no less than 99.99% and the “% Intact of [^89Zr]Zr-Complex (n = 3)” value ([2]; EDTA 500-fold, pH 7.0, 1 d) was no less than 99.99%. For the same compound, the “% Intact of [^89Zr]Zr-Complex (n = 3)” value ([2]; EDTA 500-fold, pH 7.0, 3 d) was no less than 99.99%, the “% Intact of [^89Zr]Zr-Complex (n = 3)” value ([2]; EDTA 500-fold, pH 7.0, 5 d) was no less than 99.99% and the “% Intact of [^89Zr]Zr-Complex (n = 3)” value ([2]; EDTA 500-fold, pH 7.0, 7 d) was no less than 99.99%. For the same compound, the “% Intact of [^89Zr]Zr-Complex (n = 3)” value ([2]; EDTA 1000-fold, pH 5.0, 0 h) was no less than 99.99%, the “% Intact of [^89Zr]Zr-Complex (n = 3)” value ([2]; EDTA 1000-fold, pH 5.0, 1 d) was no less than 99.99% and the “% Intact of [^89Zr]Zr-Complex (n = 3)” value ([2]; EDTA 1000-fold, pH 5.0, 3 d) was no less than 99.99%. The “% Intact of [^89Zr]Zr-Complex (n = 3)” value ([2]; EDTA 1000-fold, pH 5.0, 5 d) was no less than 99.99%, the “% Intact of [^89Zr]Zr-Complex (n = 3)” value ([2]; EDTA 1000-fold, pH 5.0, 7 d) was no less than 99.99% and the “% Intact of [^89Zr]Zr-Complex (n = 3)” value ([2]; EDTA 1000-fold, pH 7.0, 0 h) was no less than 99.99%. The “% Intact of [^89Zr]Zr-Complex (n = 3)” value ([2]; EDTA 1000-fold, pH 7.0, 1 d) was no less than 99.99%, the “% Intact of [^89Zr]Zr-Complex (n = 3)” value ([2]; EDTA 1000-fold, pH 7.0, 3 d) was no less than 99.99% and the “% Intact of [^89Zr]Zr-Complex (n = 3)” value ([2]; EDTA 1000-fold, pH 7.0, 5 d) was no less than 99.99%. The “% Intact of [^89Zr]Zr-Complex (n = 3)” value ([2]; EDTA 1000-fold, pH 7.0, 7 d) was no less than 99.99% and the LogP [3] was −2.97± 0.02.
